Read-outs that look alike come from different tables or passages of the source. Some results are limits rather than exact numbers.

In one experiment the target is T1, KRAS^WT (Homo sapiens, UniProt P01116).
T1 construct: endogenous wild type
Briefly: cell-based. Also noted: KRAS degradation by capillary electrophoresis immunodetection. On the procedure:
Protein Detection by Capillary Electrophoresis Cells (50 000) were seeded the day before treatment into 96-well clear-flat bottom plates and incubated overnight (37 °C, humidified tissue culture incubator, 5% CO2). Compounds were added from DMSO stock solution using a digital dispenser and cells are incubated at 37 °C as specified (24 hours for KRAS degradation, 6 hours for determination of pERK levels). At the end of the incubation, medium was removed, cells washed with ice cold PBS, PBS removed and 50 µL lysis buffer (Meso Scale Discovery #R60TX-2) supplemented with 1:100 protease inhibitor solution, 1:100 phosphatase inhibitor I, 1:100 phosphatase inhibitor II (Meso Scale Discovery #R70AA-1), 0.5 µL/mL Benzonase (Novagen #70664-3) and 10 mM dithiothreitol added to each well. Plates with lysis buffer were immediately transferred to -80 °C freezer for at least 2 hours and then thawed on ice. Lysates were transferred to a 96 well V-bottom plate and insoluble debris was pelleted by centrifugation for 20 min. at 4 000 rpm. 40 µL of the supernatant were transferred to a fresh Eppendorf PCR plate. Analysis of protein levels was conducted using the Wes System, ProteinSimple (https://www.bio-techne.com/) as specified by the manufacturer. Briefly, Wes Master Mix (12-230 kDa WES Separation Module, 8 × 25 capillary cartridges, ProteinSimple #SM-W004) and molecular weight markers were prepared as specified in the manufacturer’s recommendations. To detect primary antibodies, anti-rabbit (Protein Simple #DM-001) or anti-mouse (Protein Simple #DM-002) detection modules were used. 7.2 µL lysate + 1.8 µL master mix were combined and heated to 95 °C for 5 min. […] Next, we set out to test the ability of a single pan-KRAS degrading molecule, compound 4, to selectively suppress oncogenic signaling and proliferation in cancer cell lines driven by diverse KRAS mutants. To this end, we first confirmed degradation of KRAS by compound 4 in KRAS-dependent (GP2d, SW620 and NCI-H358 expressing KRAS^G12D, - G12V or -G12C, respectively) as well as in KRAS independent (A-375, HEK293) cell lines (Fig. 3A, fig. S4A). […] Both inhibition and degradation repressed the established markers of MAPK signaling pERK (fig. S4B-D) and DUSP6 (Fig. 3B, fig. S4E) in KRAS dependent cell lines. […] Neither degradation nor inhibition had appreciable antiproliferative effects in the KRAS independent cell lines A-375 and HEK293 (Fig. 3C, fig. S4F).

The next experiment deals with T2, HiBiT-KRAS^G12D (Homo sapiens, UniProt P01116, G12D).
T2 construct: HiBiT-tagged
More on the design: HiBiT-KRAS degradation, split nanoluciferase lytic detection. The conditions noted are these: degrader. On the procedure: This formula was derived from the Growth Inhibition (GI) calculation used in the National Cancer Institute’s NCI-60 high-throughput screen. KRAS Degradation Assays via Detection of Split Nanoluciferase (HiBiT) To assess PROTAC-mediated degradation of HiBiT-tagged KRAS constructs, cells were seeded at 25 000 cells per well in culture medium into white bottom opaque 96-well plates (Perkin Elmer cat no. 5680). Plates were incubated at 37 °C, 5% CO2 in a humidified incubator over night to allow the cells to adhere. Test compounds (10 mM stock in DMSO) were added at logarithmic dose series using the HP Digital Dispenser D300 (Tecan), normalizing for added DMSO. […] Following incubation, 100 µL per well Promega Nano-Glo HiBiT lytic detection reagent mix (Promega Nano-Glo HiBiT Lytic Detection System #N3050), prepared according to the manufacturer´s instructions in the kit, were added. To allow for adequate cell lysis, plates were incubated on an orbital shaker for 15 min. and further incubated 30 min. at room temperature. Upon completion of cell lysis, luminescence was measured using an Envision plate reader using the Ultrasensitive Luminescence Protocol for 96-well plates. Luminescence levels were normalized by the values obtained with DMSO-treated samples and plotted as percent of DMSO control. DC50 values were computed using a three parametric logistic model. Dmax values represent the maximal extent of degradation observed and are stated as percent of control treatments.

Experiment [1] deals with T3, KRAS^G12D (Homo sapiens, UniProt P01116, G12D). More on the design: endogenous; KRAS degradation by capillary electrophoresis immunodetection. The settings on record: degrader; read-out: DC50 24 h GP5d. The procedure:
Protein Detection by Capillary Electrophoresis Cells (50 000) were seeded the day before treatment into 96-well clear-flat bottom plates and incubated overnight (37 °C, humidified tissue culture incubator, 5% CO2). Compounds were added from DMSO stock solution using a digital dispenser and cells are incubated at 37 °C as specified (24 hours for KRAS degradation, 6 hours for determination of pERK levels). At the end of the incubation, medium was removed, cells washed with ice cold PBS, PBS removed and 50 µL lysis buffer (Meso Scale Discovery #R60TX-2) supplemented with 1:100 protease inhibitor solution, 1:100 phosphatase inhibitor I, 1:100 phosphatase inhibitor II (Meso Scale Discovery #R70AA-1), 0.5 µL/mL Benzonase (Novagen #70664-3) and 10 mM dithiothreitol added to each well. Plates with lysis buffer were immediately transferred to -80 °C freezer for at least 2 hours and then thawed on ice. Lysates were transferred to a 96 well V-bottom plate and insoluble debris was pelleted by centrifugation for 20 min. at 4 000 rpm. 40 µL of the supernatant were transferred to a fresh Eppendorf PCR plate. Analysis of protein levels was conducted using the Wes System, ProteinSimple (https://www.bio-techne.com/) as specified by the manufacturer. Briefly, Wes Master Mix (12-230 kDa WES Separation Module, 8 × 25 capillary cartridges, ProteinSimple #SM-W004) and molecular weight markers were prepared as specified in the manufacturer’s recommendations. To detect primary antibodies, anti-rabbit (Protein Simple #DM-001) or anti-mouse (Protein Simple #DM-002) detection modules were used. 7.2 µL lysate + 1.8 µL master mix were combined and heated to 95 °C for 5 min.

Experiment [2] deals with T3, KRAS^G12D. Also noted: endogenous; KRAS degradation by capillary electrophoresis immunodetection. The conditions noted are these: read-out: DC50 24 h GP2d.
[3] abbreviates: A-375, read-out: Dmax 24 h A375 [%].
Where [4] appears, read: HEK293, read-out: Dmax 24 h HEK293 [%].

T3 sequence (P01116 whole entry G12D): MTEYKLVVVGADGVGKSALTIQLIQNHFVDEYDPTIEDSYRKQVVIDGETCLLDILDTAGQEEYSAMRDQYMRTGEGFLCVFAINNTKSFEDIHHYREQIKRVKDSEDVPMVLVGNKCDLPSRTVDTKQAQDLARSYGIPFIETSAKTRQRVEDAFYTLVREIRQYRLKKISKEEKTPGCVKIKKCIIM
T2 sequence (P01116 whole entry G12D): as above
T1 sequence (P01116 whole entry): as the sequence (P01116 whole entry G12D) above, with D12G counted along it

With `Cc1ncsc1-c1ccc(CNC(=O)C2CC(O)CN2C(=O)C(c2cc(OCCCCN3CCCN(c4nccc(-c5noc(C6(C)CCCc7sc(N)c(C#N)c76)n5)n4)C(C)C3)no2)C(C)C)cc1` (stereo not drawn) [compound 5], the results for the Dmax at KRAS^WT (setting [3]) and at KRAS^WT (setting [4]) were less than 15% and less than 20%, respectively.

As for `Cc1ncsc1-c1ccc(CNC(=O)[C@@H]2C[C@@H](O)CN2C(=O)[C@@H](c2cc(OCCCCN3CCCN(c4nccc(-c5noc([C@@]6(C)CCCc7sc(N)c(C#N)c76)n5)n4)[C@@H](C)C3)no2)C(C)C)cc1` [compound 4], the DC50 on HiBiT-KRAS^G12D (10% human serum, read-out: DC50 24 h GP5d HiBiT 10% human serum) came out at 1.9 nM; on HiBiT-KRAS^G12D (10% mouse serum, read-out: DC50 24 h GP5d HiBiT 10% mouse serum), 33.1 nM; on HiBiT-KRAS^G12D (read-out: DC50 24 h GP5d HiBiT) it was 1.4 nM; at KRAS^G12D [1] it was 0.9 nM; at KRAS^G12D [2], 3.6 nM. On KRAS^WT (setting [3]), the Dmax was found to be 100%.

In the case of `Cc1ncsc1-c1ccc(CNC(=O)[C@@H]2C[C@@H](O)CN2C(=O)[C@@H](NC(=O)CCCCCN2CCCN(c3nccc(-c4noc([C@@]5(C)CCCc6sc(N)c(C#N)c65)n4)n3)[C@@H](C)C2)C(C)(C)C)cc1` [compound 3], the results for the DC50 at HiBiT-KRAS^G12D (read-out: DC50 24 h GP5d HiBiT), at KRAS^G12D [1] and at KRAS^G12D [2] were 68.1 nM, 31.8 nM and 76.3 nM, respectively. For the same compound, the Dmax at KRAS^WT (setting [3]) came to 76%; on KRAS^WT (setting [4]), 48%.

For the compound `Cc1ncsc1-c1ccc([C@H](CO)NC(=O)[C@@H]2C[C@@H](O)CN2C(=O)[C@H](C(C)C)n2cc(OCCCCN3CCCN(c4nccc(-c5noc([C@@]6(C)CCCc7sc(N)c(C#N)c76)n5)n4)[C@@H](C)C3)nn2)cc1` [compound 7, ACBI3], the DC50 on HiBiT-KRAS^G12D (read-out: DC50 24 h GP5d HiBiT) turned out to be 0.7 nM; at KRAS^G12D [1], 2.1 nM; on KRAS^G12D [2], 3.9 nM.

For `Cc1ncsc1-c1ccc(CNC(=O)[C@@H]2C[C@@H](O)CN2C(=O)[C@@H](NC(=O)COCCCN2CCCN(c3nccc(-c4noc([C@@]5(C)CCCc6sc(N)c(C#N)c65)n4)n3)[C@@H](C)C2)C(C)(C)C)cc1` [compound 2], the DC50 came out at 494 nM on HiBiT-KRAS^G12D (read-out: DC50 24 h GP5d HiBiT) and 607 nM at KRAS^G12D [1].
